Assays:
Type in all cases: cell-based
BaF3 (EGFR/D770insSVD) [1] = target: T1, BaF3 (EGFR/D770insSVD) (Homo sapiens, UniProt P00533, cells depend on it, form not given); assay: Test 13: EGFR exon 20 inserted D770insSVD cell proliferation test; details: A763insFQEA, V769insASV, D770insSVD (tests 13-15), in words
T1 construct: other: A763insFQEA, V769ins
Protocol: (§1) Test 13: EGFR Exon 20 Inserted D770insSVD Cell Proliferation Test
(§2) The number of viable cells in the culture was measured according to the protocol described in Promega's Cell Titer-Glo Luminescent cell Viability Assay (Promega catalog number #G7570). 90 μl of cells (3,000 cells/well) were cultured in growth medium in a Corning black transparent bottom 96-well plate, and cultured in a 5% CO2 humidified incubator at 37° C. overnight. The compound serially diluted in 100% DMSO was added to the cells using a pipette, and the cells were incubated for another 72 hours. 100 μl of the mixed Cell Titer-Glo reagent was added to the cells in the 96-well culture plate to lyse the cells and mix gently. Subsequently, the […] was detected on the Envision microplate detector to obtain the data of each compound. Finally, the data was input into a suitable software package (such as Prism) for curve fitting analysis.

BaF3 (EGFR/D770insSVD) [2] = target: T2, BaF3 (EGFR/D770insSVD) (Homo sapiens, UniProt P00533, DUP768-770, cells depend on it); assay: as above; details: BaF3 (EGFR/D770insSVD), 72 hours, Cell Titer-Glo; read-out: Test 13 IC50
T2 construct: Test 13 IC50 (nM); other: BaF3 (EGFR/D770insSVD), 72 hours, Cell Titer-Glo
Protocol: as §1, §2

BaF3 (EGFR/V769insASV) = BaF3 (EGFR/V769insASV) (Homo sapiens, UniProt P00533, DUP767-769, cells depend on it); assay: Test 15: EGFR exon 20 inserted V769insASV cell proliferation test; details: 72 hours, Cell Titer-Glo, read-out: Test 15 IC50
Protocol: Test 15: EGFR Exon 20 Inserted V769insASV Cell Proliferation Test
as §2, with “(3000” for “(3,000”

BaF3 (EGFR/A763insFQEA) = BaF3 (EGFR/A763insFQEA) (Homo sapiens, UniProt P00533, INS763FQEA, cells depend on it); assay: Test 14: EGFR exon 20 inserted A763insFQEA cell proliferation test; details: 72 hours, Cell Titer-Glo, read-out: Test 14 IC50
Protocol: Test 14: EGFR Exon 20 Inserted A763insFQEA Cell Proliferation Test
as §2

BaF3 (EGFR-A763insFQEA) = BaF3 (EGFR-A763insFQEA) (Homo sapiens, UniProt P00533, INS763FQEA, cells depend on it); assay: Test 3: BaF3 (EGFR-A763insFQEA) cell proliferation test; details: 72 hours, Cell Titer-Glo, read-out: Test 3 - IC50
BaF3 (EGFR-A763insFQEA), sequence (P00533 with tags, fused parts or gaps INS763FQEA): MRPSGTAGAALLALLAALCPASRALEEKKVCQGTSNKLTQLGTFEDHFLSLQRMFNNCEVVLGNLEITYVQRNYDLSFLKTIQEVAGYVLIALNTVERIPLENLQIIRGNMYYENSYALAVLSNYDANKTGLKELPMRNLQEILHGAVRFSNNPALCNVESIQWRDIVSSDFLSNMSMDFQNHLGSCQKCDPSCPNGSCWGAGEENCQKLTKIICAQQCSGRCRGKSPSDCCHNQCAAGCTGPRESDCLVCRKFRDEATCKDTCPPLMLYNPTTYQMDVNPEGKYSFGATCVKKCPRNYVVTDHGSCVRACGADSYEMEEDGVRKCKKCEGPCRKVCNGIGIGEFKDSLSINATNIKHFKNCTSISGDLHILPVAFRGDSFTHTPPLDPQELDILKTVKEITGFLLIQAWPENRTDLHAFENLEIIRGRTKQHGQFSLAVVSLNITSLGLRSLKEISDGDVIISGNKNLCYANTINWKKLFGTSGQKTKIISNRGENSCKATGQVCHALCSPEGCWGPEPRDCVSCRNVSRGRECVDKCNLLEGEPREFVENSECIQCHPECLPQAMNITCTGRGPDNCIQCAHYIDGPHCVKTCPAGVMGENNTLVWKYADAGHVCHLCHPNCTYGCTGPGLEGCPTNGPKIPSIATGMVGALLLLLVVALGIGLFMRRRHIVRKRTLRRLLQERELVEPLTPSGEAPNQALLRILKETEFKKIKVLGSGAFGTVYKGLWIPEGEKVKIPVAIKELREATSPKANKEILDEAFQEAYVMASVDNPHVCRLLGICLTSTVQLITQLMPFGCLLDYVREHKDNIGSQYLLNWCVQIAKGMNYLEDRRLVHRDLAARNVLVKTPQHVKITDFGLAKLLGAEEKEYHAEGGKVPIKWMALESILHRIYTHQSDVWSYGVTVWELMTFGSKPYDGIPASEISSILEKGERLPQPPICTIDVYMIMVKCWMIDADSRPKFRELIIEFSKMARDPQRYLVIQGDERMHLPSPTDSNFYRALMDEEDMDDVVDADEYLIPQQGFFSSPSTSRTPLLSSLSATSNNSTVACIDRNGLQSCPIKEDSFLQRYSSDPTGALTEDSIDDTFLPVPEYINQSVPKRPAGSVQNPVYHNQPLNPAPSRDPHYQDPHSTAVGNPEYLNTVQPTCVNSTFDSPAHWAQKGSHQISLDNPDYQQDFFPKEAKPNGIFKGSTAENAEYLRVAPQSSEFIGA
Protocol: Test 3: BaF3 (EGFR-A763insFOEA) Cell Proliferation Test
BaF3 (EGFR-A763insFQEA) was cultured in RPMI1640 medium containing 10% fetal bovine serum and 2 mM glutamine. The cells were grown at 37° C. in a humidified incubator with 5% CO2.
as §2

BaF3 (EGFR-D770insSVD) = BaF3 (EGFR-D770insSVD) (Homo sapiens, UniProt P00533, DUP768-770, cells depend on it); assay: Test 2: BaF3 (EGFR-D770insSVD) cell proliferation test; details: 72 hours, Cell Titer-Glo, read-out: Test 2 - IC50
BaF3 (EGFR-D770insSVD), sequence (P00533 with tags, fused parts or gaps DUP768-770): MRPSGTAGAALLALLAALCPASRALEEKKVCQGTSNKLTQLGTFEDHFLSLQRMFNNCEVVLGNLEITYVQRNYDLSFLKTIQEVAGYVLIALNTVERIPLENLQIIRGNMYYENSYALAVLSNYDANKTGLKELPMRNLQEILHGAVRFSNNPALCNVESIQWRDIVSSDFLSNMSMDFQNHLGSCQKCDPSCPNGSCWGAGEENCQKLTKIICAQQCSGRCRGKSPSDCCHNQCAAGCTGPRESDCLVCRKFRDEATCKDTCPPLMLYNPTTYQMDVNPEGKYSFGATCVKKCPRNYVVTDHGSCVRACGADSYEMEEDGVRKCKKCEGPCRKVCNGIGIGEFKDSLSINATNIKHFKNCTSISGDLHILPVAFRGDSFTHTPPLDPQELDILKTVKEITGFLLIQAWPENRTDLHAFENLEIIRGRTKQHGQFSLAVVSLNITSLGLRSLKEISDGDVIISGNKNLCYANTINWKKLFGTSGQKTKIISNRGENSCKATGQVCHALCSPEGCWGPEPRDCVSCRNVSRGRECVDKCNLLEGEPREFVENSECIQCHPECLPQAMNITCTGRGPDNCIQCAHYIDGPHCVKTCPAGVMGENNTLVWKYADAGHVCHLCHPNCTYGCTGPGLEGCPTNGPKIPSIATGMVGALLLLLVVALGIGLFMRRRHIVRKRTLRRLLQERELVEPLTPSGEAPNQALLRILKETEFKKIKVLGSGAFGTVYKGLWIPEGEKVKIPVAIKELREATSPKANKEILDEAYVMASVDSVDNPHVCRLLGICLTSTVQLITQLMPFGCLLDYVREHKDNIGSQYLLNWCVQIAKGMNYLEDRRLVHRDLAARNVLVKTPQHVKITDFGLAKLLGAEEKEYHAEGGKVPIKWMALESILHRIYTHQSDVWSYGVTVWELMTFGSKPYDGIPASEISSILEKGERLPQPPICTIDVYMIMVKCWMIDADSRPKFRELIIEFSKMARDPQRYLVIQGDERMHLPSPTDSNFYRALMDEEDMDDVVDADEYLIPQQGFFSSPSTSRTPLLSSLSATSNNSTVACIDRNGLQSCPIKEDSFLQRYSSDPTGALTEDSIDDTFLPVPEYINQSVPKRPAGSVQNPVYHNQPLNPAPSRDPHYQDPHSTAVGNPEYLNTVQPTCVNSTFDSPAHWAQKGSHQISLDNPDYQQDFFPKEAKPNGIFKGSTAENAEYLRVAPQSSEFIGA
Protocol: Test 2: BaF3 (EGFR-D770insSVD) Cell Proliferation Test
BaF3 (EGFR-D770insSVD) was cultured in RPMI1640 medium containing 10% fetal bovine serum and 2 mM glutamine. The cells were grown at 37° C. in a humidified incubator with 5% CO2.
as §2

[3] = tested on: NCI-H1975 (EGFR L858R/T790M double mutant); assay: Test 1: EGFR L858R/T790M (EGFR double mutant) cell proliferation test; details: Homo sapiens; NCI-H1975 cells, 72 hours, Cell Titer-Glo
Protocol: Test 1: EGFR L858R/T790M (EGFR Double Mutant) Cell Proliferation Test
The human lung cell line NCI-H1975 (EGFR L858R/T790M double mutant) was obtained from the American Type Culture Collection. NCI-H1975 cells were cultured in RPMI1640 medium containing 10% fetal bovine serum and 2 mM glutamine. The cells were grown at 37° C. in a humidified incubator with 5% CO2.
as §2, with “(8,000” for “(3,000”

BaF3 (EGFR-V769insASV) = BaF3 (EGFR-V769insASV) (Homo sapiens, UniProt P00533, DUP767-769, cells depend on it); assay: Test 4: BaF3 (EGFR-V769insASV) cell proliferation test; details: 72 hours, Cell Titer-Glo, read-out: Test 4 - IC50
BaF3 (EGFR-V769insASV), sequence (P00533 with tags, fused parts or gaps DUP767-769): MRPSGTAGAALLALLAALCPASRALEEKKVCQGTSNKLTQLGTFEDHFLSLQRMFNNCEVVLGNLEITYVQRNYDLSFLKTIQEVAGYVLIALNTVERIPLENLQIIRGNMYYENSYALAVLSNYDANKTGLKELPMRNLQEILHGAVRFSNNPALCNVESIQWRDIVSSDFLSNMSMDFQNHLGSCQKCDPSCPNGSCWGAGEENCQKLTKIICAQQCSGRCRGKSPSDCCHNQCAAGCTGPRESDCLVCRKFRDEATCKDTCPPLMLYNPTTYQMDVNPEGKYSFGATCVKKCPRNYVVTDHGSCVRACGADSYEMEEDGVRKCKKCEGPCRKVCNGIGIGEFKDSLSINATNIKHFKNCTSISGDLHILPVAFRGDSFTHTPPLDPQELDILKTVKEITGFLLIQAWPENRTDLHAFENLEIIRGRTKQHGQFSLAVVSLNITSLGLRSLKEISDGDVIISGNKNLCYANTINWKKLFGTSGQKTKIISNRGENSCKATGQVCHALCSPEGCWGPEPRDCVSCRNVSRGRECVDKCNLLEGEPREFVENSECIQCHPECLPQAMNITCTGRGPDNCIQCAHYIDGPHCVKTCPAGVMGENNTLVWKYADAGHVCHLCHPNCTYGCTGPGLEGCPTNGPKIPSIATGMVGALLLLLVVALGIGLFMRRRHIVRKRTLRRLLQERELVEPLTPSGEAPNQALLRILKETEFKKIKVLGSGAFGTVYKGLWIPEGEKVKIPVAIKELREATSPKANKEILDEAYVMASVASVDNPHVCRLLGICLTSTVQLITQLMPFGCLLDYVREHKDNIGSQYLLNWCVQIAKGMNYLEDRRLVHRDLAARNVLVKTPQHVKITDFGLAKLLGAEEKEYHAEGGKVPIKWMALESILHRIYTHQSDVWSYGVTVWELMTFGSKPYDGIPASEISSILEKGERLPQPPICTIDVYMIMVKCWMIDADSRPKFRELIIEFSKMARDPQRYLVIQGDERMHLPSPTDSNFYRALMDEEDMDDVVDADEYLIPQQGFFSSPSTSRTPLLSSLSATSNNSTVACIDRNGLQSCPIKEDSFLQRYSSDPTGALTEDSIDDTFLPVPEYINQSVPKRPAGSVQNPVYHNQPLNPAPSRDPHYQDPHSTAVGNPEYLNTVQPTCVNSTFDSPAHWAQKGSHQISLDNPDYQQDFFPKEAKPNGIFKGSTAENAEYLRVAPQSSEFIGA
Protocol: Test 4: BaF3 (EGFR-V769insASV) Cell Proliferation Test
BaF3 (EGFR-V769insASV) was cultured in RPMI1640 medium containing 10% fetal bovine serum and 2 mM glutamine. The cells were grown at 37° C. in a humidified incubator with 5% CO2.
as §2

T1 sequence (P00533 25-1210 limits assumed, stated change not applied): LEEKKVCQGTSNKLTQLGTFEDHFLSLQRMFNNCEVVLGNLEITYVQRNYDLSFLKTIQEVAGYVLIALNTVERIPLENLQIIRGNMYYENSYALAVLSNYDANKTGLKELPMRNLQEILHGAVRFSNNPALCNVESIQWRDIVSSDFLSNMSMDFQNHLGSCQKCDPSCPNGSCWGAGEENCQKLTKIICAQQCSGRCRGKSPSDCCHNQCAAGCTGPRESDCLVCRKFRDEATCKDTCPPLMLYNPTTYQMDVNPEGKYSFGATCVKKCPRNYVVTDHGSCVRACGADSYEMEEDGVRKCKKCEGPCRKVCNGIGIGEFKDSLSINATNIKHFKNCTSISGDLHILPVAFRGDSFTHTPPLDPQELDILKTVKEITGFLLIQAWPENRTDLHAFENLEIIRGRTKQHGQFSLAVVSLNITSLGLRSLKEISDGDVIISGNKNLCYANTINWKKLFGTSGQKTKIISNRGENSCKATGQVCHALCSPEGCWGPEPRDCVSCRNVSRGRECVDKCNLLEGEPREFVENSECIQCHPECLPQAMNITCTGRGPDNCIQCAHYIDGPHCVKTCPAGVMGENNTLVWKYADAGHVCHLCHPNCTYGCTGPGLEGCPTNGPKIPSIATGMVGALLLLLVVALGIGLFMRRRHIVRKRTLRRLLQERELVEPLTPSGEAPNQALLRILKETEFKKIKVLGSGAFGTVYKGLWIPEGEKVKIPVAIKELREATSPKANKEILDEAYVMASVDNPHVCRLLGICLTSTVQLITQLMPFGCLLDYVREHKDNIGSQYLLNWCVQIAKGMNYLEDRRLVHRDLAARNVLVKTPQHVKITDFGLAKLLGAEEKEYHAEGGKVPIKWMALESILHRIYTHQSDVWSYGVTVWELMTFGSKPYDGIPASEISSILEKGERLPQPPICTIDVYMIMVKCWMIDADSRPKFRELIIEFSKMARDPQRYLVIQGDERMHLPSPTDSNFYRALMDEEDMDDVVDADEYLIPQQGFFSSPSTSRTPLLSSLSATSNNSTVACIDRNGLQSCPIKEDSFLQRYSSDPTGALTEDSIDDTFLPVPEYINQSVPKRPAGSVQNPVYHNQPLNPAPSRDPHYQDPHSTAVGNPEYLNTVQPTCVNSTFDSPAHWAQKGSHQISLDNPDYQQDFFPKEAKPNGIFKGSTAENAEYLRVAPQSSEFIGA

## C=CC(=O)Nc1cc(Nc2ncnc(N3CC(C)(C)c4ncccc43)n2)c(OC)cc1N(C)CCN(C)C [Compound 17, N-(5-((4-(3,3-dimethyl-2,3-dihydro-1H-pyrrolo[3,2-b]pyridin-1-yl)-1,3,5-triazin-2-yl)amino)-2-((2-(dimethylamino)ethyl)(methyl)amino)-4-methoxyphenyl)acrylamide]
BaF3 (EGFR/D770insSVD) [1]
  cell activity compared with Osimertinib (AZD9291) against EGFR exon 20 insertion mutations: significant superior cell activity over Osimertinib (AZD9291)
BaF3 (EGFR/D770insSVD) [2]
  GI50: 58 nM
BaF3 (EGFR/V769insASV)
  GI50: 36.4 nM
BaF3 (EGFR/A763insFQEA)
  GI50: 14.7 nM

## C=CC(=O)Nc1cc(Nc2ncnc(-n3cc(C)c4cnccc43)n2)c(OC)cc1N(C)CCN(C)C [Compound 18, N-(2-((2-(dimethylamino)ethyl)(methyl)amino)-4-methoxy-5-((4-(3-methyl-1H-pyrrolo[3,2-c]pyridin-1-yl)-1,3,5-triazin-2-yl)amino)phenyl)acrylamide]
BaF3 (EGFR/D770insSVD) [1]
  cell activity compared with Osimertinib (AZD9291) against EGFR exon 20 insertion mutations: significant superior cell activity over Osimertinib (AZD9291)
BaF3 (EGFR/D770insSVD) [2]
  GI50: 320 nM
BaF3 (EGFR/V769insASV)
  GI50: 244 nM
BaF3 (EGFR/A763insFQEA)
  GI50: 131 nM

## C=CC(=O)Nc1cc(Nc2ncnc(-n3ccc4cnccc43)n2)c(OC)cc1N1CC[C@@H]1CN(C)C [Example 1, (R)—N-(5-((4-(1H-pyrrole[3,2-c]pyridin-1-yl)-1,3,5-triazin-2-yl)amino)-2-(2-((dimethylamino)methyl)azetidine-1-yl)-4-methoxyphenyl)acrylamide]
BaF3 (EGFR-A763insFQEA)
  GI50: 280 nM
BaF3 (EGFR-D770insSVD)
  GI50: 412 nM
[3]
  IC50: 19.8 nM
BaF3 (EGFR-V769insASV)
  GI50: 386 nM

## C=CC(=O)Nc1cc(Nc2nccc(-c3cnc4c(I)cccn34)n2)c(OC)cc1N(C)CCN(C)C [Example 4, N-(2-((2-(dimethylamino)ethyl)(methyl)amino)-4-methoxy-5-((4-(8-iodoimidazo[1,2-a]pyridin-3-yl)pyrimidin-2-yl)amino)phenyl)acrylamide]
BaF3 (EGFR/D770insSVD) [1]
  cell activity compared with Osimertinib (AZD9291) against EGFR exon 20 insertion mutations: significant superior cell activity over Osimertinib (AZD9291)
BaF3 (EGFR-A763insFQEA)
  GI50: 313 nM
BaF3 (EGFR-D770insSVD)
  GI50: 592 nM
[3]
  IC50: 66.7 nM
BaF3 (EGFR-V769insASV)
  GI50: 470 nM

## C=CC(=O)Nc1cc(Nc2nccc(-c3cnc4c(F)cccn34)n2)c(OC)cc1N(C)CCN(C)C [Example 5, N-(2-((2-(dimethylamino)ethyl)(methyl)amino)-5-((4-(8-fluoroimidazo[1,2-a]pyridin-3-yl)pyrimidin-2-yl)amino)-4-methoxyphenyl)acrylamide]
BaF3 (EGFR/D770insSVD) [1]
  cell activity compared with Osimertinib (AZD9291) against EGFR exon 20 insertion mutations: significant superior cell activity over Osimertinib (AZD9291)
BaF3 (EGFR-A763insFQEA)
  GI50: 42.6 nM
BaF3 (EGFR-D770insSVD)
  GI50: 144 nM
[3]
  IC50: 19.5 nM
BaF3 (EGFR-V769insASV)
  GI50: 148 nM

## C=CC(=O)Nc1cc(Nc2nccc(-c3cnc4c(C(F)(F)F)cccn34)n2)c(OC)cc1N(C)CCN(C)C [Example 6, N-(2-((2-(dimethylamino)ethyl)(methyl)amino)-4-methoxy-5-((4-(8-trifluoromethylimidazo[1,2-a]pyridin-3-yl)pyrimidin-2-yl)amino)phenyl)acrylamide]
BaF3 (EGFR/D770insSVD) [1]
  cell activity compared with Osimertinib (AZD9291) against EGFR exon 20 insertion mutations: significant superior cell activity over Osimertinib (AZD9291)
BaF3 (EGFR-A763insFQEA)
  GI50: 277 nM
BaF3 (EGFR-D770insSVD)
  GI50: 518 nM
[3]
  IC50: 91 nM
BaF3 (EGFR-V769insASV)
  GI50: 477 nM

Source: US12258344B2, “Azaaromatic amide derivatives for the treatment of cancer” (SHENZHEN FORWARD PHARMACEUTICALS CO., LTD., priority 2019, dated 2025)
